Source: the NIST ThermoML archive (doi:10.1021/acs.jced.7b00221)

Assay: xn = mol fraction of the nth substance listed
Settings: 100 kPa, Liquid, Cone and plate viscometry

CCCCCCCCCCCCCC[P+](CCCCCC)(CCCCCC)CCCCCC.N#Cc1ccc[n-]1 [trihexyl(tetradecyl)phosphonium 2-cyanopyrrolide] + CCCCCCn1cc[n+](C)c1C.O=S(=O)([N-]S(=O)(=O)C(F)(F)F)C(F)(F)F
viscosity [mPa·s]
Settings | 278.15 K | 283.15 K | 288.15 K | 293.15 K | 298.15 K | 303.15 K | 308.15 K | 313.15 K | 318.15 K | 323.15 K
x1 = 0.1 | 701 | 472 | 328 | 234 | 173 | 131 | 102 | 81 | – | –
x1 = 0.201 | 895 | 598 | 411 | 290 | 212 | 159 | 122 | 96 | 77 | 63
x1 = 0.3 | 1056 | 699 | 474 | 332 | 240 | 178 | 136 | 105 | 83 | 67
x1 = 0.399 | 1356 | 897 | 607 | 422 | 304 | 224 | 169 | 130 | 103 | 82
x1 = 0.5 | 1594 | 1048 | 705 | 488 | 350 | 257 | 193 | 148 | 116 | 93
x1 = 0.601 | 1658 | 1093 | 734 | 507 | 361 | 264 | 197 | 151 | 117 | 94
x1 = 0.699 | 1745 | 1141 | 764 | 527 | 375 | 273 | 204 | 155 | 120 | 96
x1 = 0.799 | 1868 | 1221 | 820 | 566 | 403 | 294 | 219 | 167 | 130 | 103
x1 = 0.902 | 1930 | 1279 | 867 | 602 | 430 | 315 | 237 | 180 | 141 | 112
x1 = 1 | 1764 | 1179 | 804 | 563 | 404 | 297 | 223 | 170 | 133 | 106

CC(=O)[O-].CCCCCCCCCCCCCC[P+](CCCCCC)(CCCCCC)CCCCCC [trihexyl(tetradecyl)phosphonium acetate] + CCCCCC[n+]1ccn(C)c1.O=S(=O)([N-]S(=O)(=O)C(F)(F)F)C(F)(F)F
viscosity [mPa·s]
Settings | 278.15 K | 283.15 K | 288.15 K | 293.15 K | 298.15 K | 303.15 K | 308.15 K | 313.15 K | 318.15 K | 323.15 K
x1 = 0.101 | 353 | 251 | 182 | 136 | 105 | 82 | 66 | 53 | – | –
x1 = 0.199 | 579 | 404 | 286 | 209 | 156 | 120 | 94 | 75 | 61 | –
x1 = 0.3 | 946 | 644 | 447 | 319 | 235 | 177 | 136 | 107 | 85 | 70
x1 = 0.4 | 1403 | 939 | 640 | 449 | 324 | 239 | 181 | 140 | 110 | 88
x1 = 0.499 | 2057 | 1345 | 901 | 621 | 440 | 320 | 238 | 181 | 141 | 112
x1 = 0.6 | 2588 | 1669 | 1100 | 746 | 523 | 376 | 277 | 207 | 159 | 124
x1 = 0.699 | 2721 | 1763 | 1160 | 785 | 530 | 381 | 279 | 208 | 159 | 125
x1 = 0.799 | 2877 | 1850 | 1219 | 827 | 578 | 414 | 304 | 228 | 175 | 137
x1 = 0.899 | 2415 | 1575 | 1047 | 717 | 505 | 366 | 271 | 204 | 158 | 123
